We go through 15 compounds from ChEMBL document CHEMBL1132858, “1,1-Dimethylallylcoumarins potently suppress both lipopolysaccharide- and interferon-gamma-induced nitric oxide generation in mouse macrophage RAW 264.7 cells” (2000).

Molecules are shown by their SMILES. Calls of active or inactive are those of the source. The rule behind the calls is not given here.

Experiment [1] is filed under the species Mus musculus. Briefly: Compound was tested for cytotoxicity against mouse macrophage RAW 264.7 cells using MTT assay; Inactive. In kind it is functional, cell-based.
The species entered for experiment [2] is Mus musculus. The experiment can be described thus: Compound was tested for the inhibitory activity against mouse macrophage RAW 264.7 cells at the concentration of 50 uM; Inactive. In kind it is functional, cell-based.
The species named for experiment [3] is Mus musculus. Briefly: Percent inhibition of nitric oxide generation in both lipopolysaccharide and interferon gamma induced mouse macrophage RAW 264.7 cells at the concentration of 10 uM. In kind it is functional.
Experiment [4] is filed under the species Mus musculus. The experiment can be described thus: Percent inhibition of nitric oxide generation in both lipopolysaccharide and interferon gamma induced mouse macrophage RAW 264.7 cells. In kind it is functional.

Broadly, the inhibition is the drop in the measured response relative to a control, in per cent. Higher therefore signals strong suppression. In general, Inhibition refers to how much of the control response was suppressed. Low values mean a response near the control, high ones a response far below the control.

`O=c1ccc2c(O)cc(O)cc2o1`: the outcome in the experiment listed under Mus musculus [1] was inactive. Consider `CC(C)(O)[C@@H]1Cc2c(ccc3ccc(=O)oc23)O1`, for which, in the experiment filed under Mus musculus [1], the result was inactive.

Regarding `CC(C)=CCOc1ccc2ccc(=O)oc2c1`, the outcome in the experiment listed under Mus musculus [2] was inactive.

In the case of `C=CCc1c(O)ccc2ccc(=O)oc12`, the result in the experiment filed under Mus musculus [1] was inactive. With `CC(C)=CCc1c(O)ccc2ccc(=O)oc12`, the result in the experiment filed under Mus musculus [2] was inactive. `C=CCOc1ccc2ccc(=O)oc2c1`: the result in the experiment filed under Mus musculus [1] was inactive. As to `C=CC(C)(C)Oc1c2c(c(C(C)(C)C=C)c3oc(=O)ccc13)OC(C)(C)C=C2`, the outcome in the experiment filed under Mus musculus [2] was inactive. In the experiment listed under Mus musculus [3], the inhibition at 10 µM amounted to 91.2%. Turning to `C=C(C)[C@H]1O[C@@H]1c1c(OC)ccc2ccc(=O)oc12`, the result in the experiment listed under Mus musculus [1] was inactive. For `C=CC(C)(C)c1cc2c(O)c3c(c(C(C)(C)C=C)c2oc1=O)OC(C)(C)C=C3` [CLAUSARIN], in the experiment filed under Mus musculus [2], the result was inactive. Moreover, in the experiment filed under Mus musculus [3], 10 µM produced 91.2% inhibition. For `C=CC(C)(C)c1c2c(c(O)c3ccc(=O)oc13)C=CC(C)(C)O2` [NORDENTATIN] the same measures were “inactive” and 91.2%.

For the compound `COc1ccc2ccc(=O)oc2c1C1=C(C)COC1=O`, in the experiment listed under Mus musculus [1], the result was inactive. As to `CC1(C)OC1COc1c2occc2cc2ccc(=O)oc12` (stereo not drawn) [HERACLENINPRANGENIN], the Inhibition in the experiment listed under Mus musculus [4] was 36.9%. With `CC(C)=CCC/C(C)=C/CC/C(C)=C/COc1ccc2ccc(=O)oc2c1`, the result in the experiment listed under Mus musculus [2] was inactive. In turn, `C=C(COC(=O)CC(C)C)C1OC1c1c(OC)ccc2ccc(=O)oc12` (stereo not drawn) displayed an Inhibition in the experiment filed under Mus musculus [4] of 86.1%.

As to `C=C1COC2Oc3ccc4ccc(=O)oc4c3C12` (stereo not drawn), the outcome in the experiment filed under Mus musculus [1] was inactive.
